The values that follow are results of earlier work, collected in patent US6503745B1, “Cyclopentane and cyclopentene compounds and use for detecting influenza virus” (priority 1998, dated 2003).

For data set [1], the system named is influenza. The conditions noted are these: in human volunteers.
The test system of data set [2] is influenza neuraminidase.
In data set [3] the test system is influenza. The conditions noted are these: in animals.

Structures are written as SMILES. Where two headings read alike, the source gives them in different places.

On to `CC(=O)NC1C(NC(=N)N)C=C(C(=O)O)OC1[C@H](O)[C@H](O)CO` (stereo partly shown) [GG167, 2,3-didehydro-2,4-dideoxy-4-guanidinyl-N-acetylneuraminic acid], for which the “in vivo antiviral activity” value in data set [1] and in data set [3] was “potent in vivo antiviral activity” throughout. Besides, the “binder of influenza neuraminidase” value in data set [2] is listed as “potent binder”.
Consider `CCC(CC)O[C@@H]1C=C(C(=O)O)C[C@H](N)[C@H]1NC(C)=O` [GS 4071, (3R,4R,5S)-4-acetamido-5-amino-3-(1-ethylpropoxy)-1-cyclohexene-1-carboxylic acid], for which, in data set [2], the “binder of influenza neuraminidase” value is recorded as “potent binders”.
